Here are results for 22 compounds from paper PMC6645336 (ACS Omega, 2018).

“And” between values parts separate entries of the source, which are not always exact repeats. Identical values can stand only once. Like-named read-outs stand apart in the source and are kept apart here.

Series [1] in a line: Phase 2: chemical distribution from skim milk into curd and whey. The class given is physicochemical, cow. Conditions: for concentration ratio of 0% moisture curd to whey: dry matter basis; for Curd Fraction % Dose: phase 2, based on skim milk; for curd/whey concentration ratio: curd as obtained (70% moisture).
The nature of series [2]: Phase 1: chemical distribution from whole milk into milk fat and skim milk. Format: physicochemical, cow. The note with it: for distribution into milk fat, percent of total amount added: mean of all doses; for ratio of concentration in milk fat to initial concentration in whole milk / ratio of concentration in skim milk to initial concentration in whole milk: mean of dose means.

The conditions of series [3]: cited from earlier work.
The conditions of series [4]: cited from earlier work; for log P / log D (pH 7.4): discussion compounds, Table S4.
For series [5] the following is noted: cited from earlier work. The source holds these as a separate data set.
The conditions of series [6]: cited from earlier work. The source holds these as a separate data set.
A short description of series [7]: Literature reports of residue distribution in milk products. Set-up: species or system cow. The note with it: 15% of whole milk in their study, 10% in ours; from ref 18 data.

In the case of `Brc1ccc(Oc2cc(Br)c(Br)cc2Br)c(Br)c1` [BDE-99, 2,2′,4,4′,5-pentabromodiphenyl ether], in series [1] (mean of doses), the “concentration ratio of 0% moisture curd to whey” value was 327 and the “chemical retained in the curd fraction, percent of chemical in skim milk” value is ~80%. Besides, the “Curd Fraction % Dose” value in series [1] (nominal 20 nM in whole milk) was 73%. Further, the “Curd Fraction % Dose” value in series [1] (nominal 200 nM in whole milk) worked out at 80%. Moreover, the “Curd Fraction % Dose” value in series [1] (nominal 2000 nM in whole milk) turned out to be 92%. Further, in series [2], the “distribution into milk fat, percent of total amount added” value (“distribution into milk fat, percent” for short) was > 80% and the “ratio of concentration in milk fat to initial concentration in whole milk” value (from here on “ratio of concentration in milk fat”) is 18–20.

Take `CC(=O)Nc1ccc(O)cc1` [TYL, acetaminophen]: in series [3], the curd/whey concentration ratio is 1.5.

Consider `ClC1=C(Cl)C2(Cl)C3C(Cl)C=CC3C1(Cl)C2(Cl)Cl` (stereo not shown) [heptachlor], for which, in series [4], the “log P” value was 5.46. The curd/whey concentration ratio in series [5] is on record as 22.

On to `Clc1ccc(C(c2ccc(Cl)cc2)C(Cl)(Cl)Cl)cc1` [DDT, dichlorodiphenyltrichloroethane], for which, in series [4], the “log P” value is given as 5.92 and the “log D (pH 7.4)” value is recorded as 6.22. In series [5] (during the manufacturing of cheese), the “starting DDT degraded to DDE and DDD” value is on record as 27–53%. Further, the “concentration in Swiss-type cheese relative to original whole milk” value in series [5] (milk of dairy cows fed DDT) is recorded as ~8 times. The cream/whole milk ratio in series [5] (pasteurized milk) was 12. Besides, in series [5] (raw milk), the cream/whole milk ratio is 9.0.

Regarding `Clc1ccc(-c2cc(Cl)c(Cl)cc2Cl)cc1Cl` [PCB-118, 2,3′,4,4′,5-pentachlorobiphenyl], in series [1] (mean of doses), the “concentration ratio of 0% moisture curd to whey” value amounted to 136 and the “chemical retained in the curd fraction, percent of chemical in skim milk” value is on record as ~80%. In series [2], the “distribution into milk fat, percent” value is given as > 80%; the “ratio of concentration in milk fat” value is 18–20 and 19.5.

As to `Oc1c(Cl)cc2c(c1Cl)Oc1cc(Cl)c(Cl)cc1O2` [2-OH-1378-TCDD, 2-hydroxy-1,3,7,8-tetrachlorodibenzo-p-dioxin], the “greater distribution into whey compared to the unsubstituted analogue” value in series [1] (2-OH-1378-TCDD vs 1278-TCDD, 3′-MeSO2-PCB-101 vs PCB-118) is reported as ~30%. The “percent of whole milk chemical distributed to whey” value in series [1] (based on whole milk) is “About 25%”. Further, in series [1] (mean of doses), the “concentration ratio of 0% moisture curd to whey” value is on record as 18; the “chemical distributed into whey, percent of chemical in skim milk” value is on record as 35–60%; the “chemical retained in the curd fraction, percent of chemical in skim milk” value is 40–60%. Besides, the “reduction in milk fat distribution by hydroxylation” value in series [2] (2-OH-1378-TCDD compared with 1278-TCDD) was ~30%. In series [2], the “distribution into milk fat, percent” value was 54% and the “ratio of concentration in milk fat” value turned out to be 11.2.

As for `Cl[C@H]1[C@H](Cl)[C@@H](Cl)[C@@H](Cl)[C@H](Cl)[C@H]1Cl` [lindane, 1,2,3,4,5,6-hexachlorcyclohexane], the “log P” value in series [4] is recorded as 3.99. Further, in series [5], the “concentration in curd relative to whey” value is reported as “approximately 12 times” and the reduction by pasteurization is recorded as 65–73%. For the same compound, the “losses in Ras cheese” value in series [5] (during 6 months in storage) is 36.7%. In series [5] (over 3 days), the “losses during refrigeration of yogurt” value is given as 1.4–8%.

Consider `O=C(Nc1ccc(Cl)cc1)Nc1ccc(Cl)c(Cl)c1` [TCC, triclocarban], for which, in series [1] (mean of doses), the “concentration ratio of 0% moisture curd to whey” value is reported as 46; the “chemical distributed into whey, percent of chemical in skim milk” value is listed as 35–60%; the “chemical retained in the curd fraction, percent of chemical in skim milk” value is recorded as 40–60%; the “percent of skim milk chemical in 0% moisture curd” value is listed as 57%. In series [2], the “distribution into milk fat, percent” value is > 80% and 85%; the “ratio of concentration in milk fat” value was 18–20 and 17.6.

With `CC[C@H]1OC(=O)[C@H](C)[C@@H](O[C@H]2C[C@@](C)(OC)[C@@H](O)[C@H](C)O2)[C@H](C)[C@@H](O[C@@H]2O[C@H](C)C[C@H](N(C)C)[C@H]2O)[C@](C)(O)C[C@@H](C)C(=O)[C@H](C)[C@@H](O)[C@]1(C)O` [ERY, erythromycin], the curd/whey concentration ratio in series [3] was 2.4.

On to `Clc1cc2c(cc1Cl)Oc1c(ccc(Cl)c1Cl)O2` [1278-TCDD, 1,2,7,8-tetrachlorodibenzo-p-dioxin], for which, in series [1] (mean of doses), the “concentration ratio of 0% moisture curd to whey” value is given as 115 and the “chemical retained in the curd fraction, percent of chemical in skim milk” value was ~80%. In addition, in series [2], the “distribution into milk fat, percent” value is recorded as > 80%; the “ratio of concentration in milk fat” value was 18–20 and 18.7.

Regarding `O=[N+]([O-])NC1=NCCN1Cc1ccc(Cl)nc1` [IMI, imidacloprid], in series [1] (mean of doses), the curd/whey concentration ratio is recorded as 2.4; the “concentration ratio of 0% moisture curd to whey” value is 9.2; the “chemical retained in the curd fraction, percent of chemical in skim milk” value was 23.7%. Further, in series [2], the “distribution into milk fat, percent” value is 2.5% and the “ratio of concentration in skim milk to initial concentration in whole milk” value is ~1.

Take `C[C@]12CC[C@@H]3c4ccc(O)cc4CC[C@H]3[C@@H]1CCC2=O` [E1, estrone]: in series [1] (mean of doses), the curd/whey concentration ratio was 24 and the “concentration ratio of 0% moisture curd to whey” value turned out to be 104. In series [2], the “distribution into milk fat, percent” value came out at 74%; the “ratio of concentration in milk fat” value was 15.8 and ~16.

On to `CS(=O)(=O)c1ccc([C@@H](O)[C@@H](CO)NC(=O)C(Cl)Cl)cc1` [TAP, thiamphenicol], for which, in series [3], the curd/whey concentration ratio is on record as 1.3.

With `Clc1cc2c(cc1Cl)Oc1cc(Cl)c(Cl)cc1O2` [2,3,7,8-TCDD], the “residues in cream exceeding those in milk, factor” value in series [5] (lactating dairy cows, medium heavy cream) is “about 10”.

For `CN(C)[C@@H]1C(O)=C(C(N)=O)C(=O)[C@@]2(O)C(O)=C3C(=O)c4c(O)cccc4[C@@](C)(O)[C@H]3[C@H](O)[C@@H]12` [OTET, oxytetracycline], the curd/whey concentration ratio in series [3] is listed as 1.4.

Consider `CC(C)(c1ccc(O)cc1)c1ccc(O)cc1` [BPA, bisphenol A], for which, in series [1] (mean of doses), the curd/whey concentration ratio came out at 29 and the “concentration ratio of 0% moisture curd to whey” value came out at 111. Moreover, the “distribution into milk fat, percent” value in series [2] is listed as 39%.

For the compound `CC1(C)S[C@@H]2[C@H](NC(=O)Cc3ccccc3)C(=O)N2[C@H]1C(=O)O` [PENG, penicillin G], the curd/whey concentration ratio in series [3] is recorded as 1.2.

With `COP(=S)(OC)Oc1ccc(SC)c(C)c1` [fenthion], the “log P” value in series [4] is reported as 3.21. Also, in series [5], the “concentration ratio of fat/whole milk” value was ~5 and the “percent found in the fat fractions” value was 80–90%.

With `ClC1=C(Cl)C2(Cl)C3C4CC(C5OC45)C3C1(Cl)C2(Cl)Cl` (stereo not shown) [endrin], in series [4], the lipophilicity (log P) was 4.9 and the “log D (pH 7.4)” value is reported as 4.9. In series [5], the curd/whey concentration ratio is recorded as 91.

ivermectin [IVR]: in series [4] (Table S1, value cited in the earlier paper), the “log P, parenthesis value” is on record as 6.61. In series [6], the “milk fat/whole milk concentration ratio” value is on record as 18.4.

On to `O=C(O)CNCP(=O)(O)O` [GLY, glyphosate], for which, in series [1] (mean of doses), the curd/whey concentration ratio stood at 1.4; the “concentration ratio of 0% moisture curd to whey” value is recorded as 2.5; the “chemical retained in the curd fraction, percent of chemical in skim milk” value is “approximately 16.5%”. Besides, in series [2], the “distribution into milk fat, percent” value was found to be 0.95%; the “ratio of concentration in milk fat” value is 0.2; the “ratio of concentration in skim milk to initial concentration in whole milk” value is ~1.

As for `CNP(=O)(OC)Oc1ccc(C(C)(C)C)cc1Cl` (stereo not shown) [cruformate], the “log P” value in series [4] is on record as 3.33. For the same compound, the “concentration into cream relative to whole milk” value in series [5] (fed to cows) is on record as “fivefold”. Further, the curd/whey concentration ratio in series [5] (starting milk concentration 0.07 ppm) is 22; in series [5] (starting milk concentration 0.16 ppm), 31. Further, the “concentration into cream adjusted to reflect lipid mass yield” value in series [7] is given as ~7.6 fold.

By log P is commonly meant the decadic logarithm of the partition coefficient of the neutral form, usually between octanol and water.
